These results are taken from patent publication US20230227838A1, “ENHANCED CELL SURVIVAL AGAINST BIOTIC AND ABIOTIC STRESSES THROUGH SALICYLICK ACID-INDUCED NPR1 CONDENSATES” (priority 2020, published 2023).

The subject of one assay is EDS1. In words: Interaction with EDS1 (co-IP in planta, pull-down in E. coli). It counts as binding, Arabidopsis thaliana. Particulars: in planta (1 mM SA 5 hr) and in E. coli. The source says: Plasmid construction and E. coli-based ubiquitination: The coding sequences for all Arabidopsis genes were amplified from cDNA. Point mutations of AtNPR1 (AT1G64280) were generated using the QuikChange II site-directed mutagenesis kit (Agilent). Overlap PCR was used to generate the deletion/truncation mutations of AtCUL3A (AT1G26830) and AtNPR1. The WT and mutated coding sequences for all genes and gene fusions were sub-cloned into the pDONR207 gateway donor vector and confirmed by sequencing. The obtained entry vectors were recombined into either plant or E. coli destination vectors without or with an N- or C-terminal tag. For in planta expression, genes were recombined into the plant binary vectors pK7FWG2, pSITE-4NB and pLN462 to generate C-terminal eGFP, mCherry and HA fusions, respectively; into pK7WGF2, pEG201, pEG202, pEG203 and pEG204 to generate N-terminal eGFP, HA, FLAG, Myc and V5 fusions, respectively. […] For bimolecular fluorescence complementation (BiFC), entry vectors carrying the coding sequences of genes and their mutant variants were recombined into the pSITE-cEYFP-N1 binary vector for C-terminal fusion with the cYFP half (YC), or into the pSITE-nEYFP-C1 for N-terminal fusion with the nYFP half (YN). […]

For another assay, the system named is FLAG-WRKY70. The assay can be described thus: NPR1-CRL3 ubiquitination cascade reconstituted in E. coli. The class given is biochemical, Arabidopsis thaliana. Particulars: 1 mM sodium salicylate.
In assay [1] the test system is total protein ubiquitination. The assay can be described thus: Total ubiquitination in N. benthamiana expressing CUL3 and NPR1 or sim3. It counts as cell-based, Nicotiana benthamiana. The protocol: Protein analysis and IP. Recombinant protein analysis was performed using transient expression in N. benthamiana, or stable over-expression in transgenic Arabidopsis, or expression in E. coli. Total protein extraction from plants was performed by homogenizing leaf tissue in the plant extraction buffer [50 mM Tris-HCl (pH 7.5), 150 mM NaCl, 5 mM EDTA, 0.2% Triton X-100, 0.2% Nonidet P-40] supplemented with 1 mM PMSF, 100 μM MG132, and EDTA-free protease inhibitor cocktail (Roche). For ubiquitinated protein analysis in plants, 100 μM of DUB (deubiquitinase) inhibitor (LifeSensors) and 10 mM NEM were added. Next, the lysates were cleared by centrifugation at 14,000 rpm for 15 min followed by filtering through a 0.2 μm filter. […] Pull-downs or IP experiments were done on total protein extracts by incubating protein samples in the lysis buffer overnight with indicated affinity tag or antibody conjugated to agarose or magnetic beads: GFP-trap agarose beads (Chromotek) for GFP fusions; RFP-trap agarose beads (Chromotek) for mCherry fusions; anti-HA magnetic beads (ThermoFisher) for HA tag fusions; anti-DYKDDDDK coupled magnetic agarose (ThermoFisher) for FLAG tag fusions; and glutathione magnetic agarose (ThermoFisher) for GST fusions. Unless otherwise indicated, after pull-down/IP, beads were washed 3 times and proteins were eluted by boiling in the 2×SDS sample buffer. […]

As for “NPR1: wild-type Arabidopsis thaliana NPR1 protein, positive regulator of systemic acquired resistance”, in the assay with EDS1, the “interaction with EDS1” value is given as “direct interaction”. Also, the “ubiquitination of WRKY70 in reconstituted NPR1-CRL3 cascade” value with FLAG-WRKY70 is listed as “could mediate ubiquitination of WRKY70”.

With `O=C(O)c1ccccc1O` [SA, salicylic acid], in assay [1] (3 mM SA), the “total protein ubiquitination under dose response to SA” value is on record as “reduction in ubiquitination”.

B1: sim3: SUMOylation-deficient mutant of NPR1 (protein)
chain: MDTTIDGFADSYEISSTSFVATDNTDSSIVYLAAEQVLTGPDVSALQLLSNSFESVFDSPDDFYSDAKLVLSDGREVSFHRCVLSARSSFFKSALAAAKKEKDSNNTAAVKLELKEIAKDYEVGFDSVVTVLAYVYSSRVRPPPKGVSECADENCCHVACRPAVDFMLEVLYLAFIFKIPELITLYQRHLLDVVDKVVIEDTLVILKLANICGKACMKLLDRCKEIIVKSNVDMVSLEKSLPEELVKEIIDRRKELGLEVPKVKKHVSNVHKALDSDDIELVKLLLKEDHTNLDDACALHFAVAYCNVKTATDLLKLDLADVNHRNPRGYTVLHVAAMRKEPQLAASALEKGASASEATLEGRTALMIAKQATMAVECNNIPEQCKHSLKGRLCVEILEQEDKREQIPRDVPPSFAVAADELKMTLLDLENRVALAQRLFPTEAQAAMEIAEMKGTCEFIVTSLEPDRLTGTKRTSPGVKIAPFRILEEHQSRLKALSKTVELGKRFFPRCSAVLDQIMNCEDLTQLACGEDDTAEKRLQKKQRYMEIQETLKKAFSEDNLELGNSSLTDSTSSTSKSTGGKRSNRKLSHRRR
modifications: left off: small tags and cut ends
notes: SUMOylation-deficient mutant of NPR1
B1: the “interaction with EDS1” value in the assay on EDS1 is reported as “could interact”. Besides, in the assay on FLAG-WRKY70, the “ubiquitination of WRKY70 in reconstituted NPR1-CRL3 cascade” value is reported as “could mediate ubiquitination of WRKY70”. Besides, the “baseline SA-dependent ubiquitination” value in assay [1] (compared with NPR1) is reported as “lower”.
